From ChEMBL document CHEMBL6074652, “New rhodol-sulforaphane conjugates as innovative isothiocyanate-based cytotoxic agents for cancer cells” (Eur J Med Chem, 2024)
Calls of active or inactive are those of the source. The rule behind the calls is not given here.

Legend:
Jurkat [1] = assay: Induction of DNA damage in human Jurkat cells assessed as fold increase in H2AX phosphorylation expression at 4 to 8 uM incubated for 30 mins by flow cytometric analysis; format: functional; settings: dose 4-8 µM, 0.5 h
Jurkat [2] = assay: Cytotoxicity against human Jurkat cells assessed as inhibition of cell viability incubated for 72 hrs by trypan blue staining based MTT assay; format: functional
TK6 [3] = assay: Induction of DNA damage in human TK6 cells assessed as accumulation of single strand breaks at 2 to 8 uM by measuring nuclear diffusion factor by fast halo based fluorescence microscopic analysis; format: functional, cell-based; settings: dose 2-8 µM
TK6 [4] = assay: Cytotoxicity against human TK6 cells assessed as reduction in cell viability at 0 to 6 uM incubated for 24 hrs by trypan blue staining based MTT assay; format: functional; settings: dose 0-6 µM
U-937 [5] = assay: Cytotoxicity against human U-937 cells assessed as reduction in cell viability at 0 to 8 uM incubated for 24 hrs by trypan blue staining based MTT assay; format: functional; settings: dose 0-8 µM
OCI-AML-3 [6] = assay: Cytotoxicity against human OCI-AML-3 cells assessed as reduction in cell viability at 0 to 8 uM incubated for 24 hrs by trypan blue staining based MTT assay; format: functional; settings: dose 0-8 µM
MOLM-13 [7] = assay: Cytotoxicity against human MOLM-13 cells assessed as reduction in cell viability at 0 to 8 uM incubated for 24 hrs by trypan blue staining based MTT assay; format: functional; settings: dose 0-8 µM
MV4-11 [8] = assay: Cytotoxicity against human MV4-11 cells assessed as reduction in cell viability at 0 to 8 uM incubated for 24 hrs by trypan blue staining based MTT assay; format: functional; settings: dose 0-8 µM
RPMI-1788 [9] = assay: Cytotoxicity against human RPMI-1788 cells assessed as reduction in cell viability at 0 to 8 uM incubated for 24 hrs by trypan blue staining based MTT assay; format: functional; settings: dose 0-8 µM
TK6 [10] = assay: Cytotoxicity against human TK6 cells assessed as reduction in cell viability incubated for 24 hrs by trypan blue staining based MTT assay; format: functional; settings: dose 0-6 µM
U-937 [11] = assay: Cytotoxicity against human U-937 cells assessed as reduction in cell viability incubated for 24 hrs by trypan blue staining based MTT assay; format: functional; settings: dose 0-8 µM
OCI-AML-3 [12] = assay: Cytotoxicity against human OCI-AML-3 cells assessed as reduction in cell viability incubated for 24 hrs by trypan blue staining based MTT assay; format: functional; settings: dose 0-8 µM
MOLM-13 [13] = assay: Cytotoxicity against human MOLM-13 cells assessed as reduction in cell viability incubated for 24 hrs by trypan blue staining based MTT assay; format: functional; settings: dose 0-8 µM
MV4-11 [14] = assay: Cytotoxicity against human MV4-11 cells assessed as reduction in cell viability incubated for 24 hrs by trypan blue staining based MTT assay; format: functional; settings: dose 0-8 µM
RPMI-1788 [15] = assay: Cytotoxicity against human RPMI-1788 cells assessed as reduction in cell viability incubated for 24 hrs by trypan blue staining based MTT assay; format: functional; settings: dose 0-8 µM
Jurkat [16] = assay: Induction of apoptosis in human Jurkat cells assessed as appearance of chromatin condensation pretreated with compound for 1 hr and measured after 5 hrs by uranyl acetate and lead citrate staining based transmission electron microscopic analysis; format: functional, cell-based; settings: time 6.0 hrs
Jurkat [17] = assay: Induction of apoptosis in human Jurkat cells assessed as appearance of cup-shaped masses pretreated with compound for 1 hr and measured after 5 hrs by uranyl acetate and lead citrate staining based transmission electron microscopic analysis; format: functional, cell-based; settings: time 6.0 hrs
Jurkat [18] = assay: Induction of apoptosis in human Jurkat cells assessed as appearance of micronuclei pretreated with compound for 1 hr and measured after 5 hrs by uranyl acetate and lead citrate staining based transmission electron microscopic analysis; format: functional, cell-based; settings: time 6.0 hrs
Jurkat [19] = assay: Induction of apoptosis in human Jurkat cells assessed as appearance of secondary necrosis pretreated with compound for 1 hr and measured after 5 hrs by uranyl acetate and lead citrate staining based transmission electron microscopic analysis; format: functional, cell-based; settings: time 6.0 hrs
Jurkat [20] = assay: Induction of apoptosis in human Jurkat cells assessed as increase in caspase-3 activity incubated for 2 hrs by colorimetric protease assay; format: functional, cell-based; settings: dose 2-6 µM
Jurkat [21] = assay: Induction of apoptosis in human Jurkat cells assessed as increase in caspase-8 activity incubated for 2 hrs by colorimetric protease assay; format: functional, cell-based; settings: dose 2-6 µM
Mitochondrial membrane = assay: Induction of mitochondrial membrane potential loss in human Jurkat cells at 2 to 6 uM by flow cytometric analysis; settings: dose 2-6 µM
Jurkat [22] = assay: Induction of DNA damage in human Jurkat cells assessed as single strand breaks at 8 uM by measuring nuclear diffusion factor measured after 3 hrs by fast halo based fluorescence microscopic analysis relative to control; format: functional
Jurkat [23] = assay: Induction of apoptosis in human Jurkat cells assessed as cleavage of PARP1 at 4 to 6 uM by flow cytometric analysis; format: functional, cell-based; settings: dose 4-6 µM
Jurkat [24] = assay: Induction of DNA damage in human Jurkat cells assessed as fold increase in p53 expression at 4 uM by flow cytometric analysis; format: functional
Jurkat [25] = assay: Induction of DNA damage in human Jurkat cells assessed as increase in accumulation of single strand breaks by measuring nuclear diffusion factor by fast halo based fluorescence microscopic analysis; format: functional, cell-based; settings: dose 0-8 µM
Jurkat [26] = assay: Induction of DNA damage in human Jurkat cells assessed as accumulation of single strand breaks at 2 to 8 uM by measuring nuclear diffusion factor by fast halo based fluorescence microscopic analysis; format: functional, cell-based; settings: dose 2-8 µM
TK6 [27] = assay: Induction of DNA damage in human TK6 cells assessed as micronuclei formation incubated for 4 hrs by May-Grunwald/Giemsa staining based microscopic analysis; format: functional, cell-based; settings: dose 1-4 µM
TK6 [28] = assay: Induction of DNA damage in human TK6 cells assessed as micronuclei formation at >4 uM incubated for 4 hrs by May-Grunwald/Giemsa staining based microscopic analysis; format: functional, cell-based
TK6 [29] = assay: Induction of DNA damage in human TK6 cells assessed as micronuclei formation at 4 uM by measuring 1000 binucleated cells incubated for 4 hrs by May-Grunwald/Giemsa staining based microscopic analysis; format: functional
Jurkat [30] = assay: Induction of DNA damage in human Jurkat cells assessed as accumulation of single strand breaks at 2 to 6 uM under 4 degreeC incubated for 1 hr by measuring nuclear diffusion factor by fast halo based fluorescence microscopic analysis; format: functional, cell-based; settings: dose 2-6 µM
Jurkat [31] = assay: Cytotoxicity against human Jurkat cells assessed as cell growth inhibition under 4 degreeC incubated for 72 hrs by trypan blue staining based MTT assay; format: functional
Jurkat [32] = assay: Cytotoxicity against human Jurkat cells assessed as cell growth inhibition under 37 degreeC incubated for 72 hrs by trypan blue staining based MTT assay; format: functional
Jurkat [33] = assay: Induction of DNA damage in human Jurkat cells at 6 uM assessed as nuclear diffusion factor incubated for 1 hr in presence of iron-chelator o-phenanthroline by fast halo based fluorescence microscopic analysis; format: functional, cell-based
Jurkat [34] = assay: Induction of DNA damage in human Jurkat cells at 6 uM assessed as nuclear diffusion factor incubated for 1 hr in presence of rotenone by fast halo based fluorescence microscopic analysis; format: functional, cell-based
Jurkat [35] = assay: Cytotoxicity against human Jurkat cells at 6 uM in presence of iron-chelator o-phenanthroline by trypan blue staining based MTT assay; format: functional, cell-based
Jurkat [36] = assay: Cytotoxicity against human Jurkat cells at 6 uM incubated for 1 hr in presence of rotenone by trypan blue staining based MTT assay; format: functional, cell-based
Jurkat [37] = assay: Induction of DNA damage in human Jurkat cells measured at 1 hr; format: functional, cell-based; settings: dose 6.0 µM
Jurkat [38] = assay: Cytotoxicity against human Jurkat cells assessed as inhibition of cell viability < 32 uM incubated for 72 hrs by trypan blue staining based MTT assay; format: functional
Jurkat [39] = assay: Induction of DNA damage in human Jurkat cells assessed as single strand breaks at <32 uM by measuring nuclear diffusion factor by fast halo based fluorescence microscopic analysis; format: functional, cell-based
Jurkat [40] = assay: Cytotoxicity against human Jurkat cells assessed as cell survival rate at 30 uM incubated for 72 hrs by trypan blue staining based MTT assay; settings: read-out: Survival
TK6 [41] = assay: Induction of DNA damage in human TK6 cells assessed as micronuclei formation at 2 uM incubated for 4 hrs by May-Grunwald/Giemsa staining based microscopic analysis; format: functional, cell-based
Jurkat [42] = assay: Induction of DNA damage in human Jurkat cells at 4 uM assessed as nuclear diffusion factor incubated for 1 hr in presence of iron-chelator o-phenanthroline by fast halo based fluorescence microscopic analysis; format: functional, cell-based
Jurkat [43] = assay: Induction of DNA damage in human Jurkat cells at 4 uM assessed as nuclear diffusion factor incubated for 1 hr in presence of rotenone by fast halo based fluorescence microscopic analysis; format: functional, cell-based
Jurkat [44] = assay: Cytotoxicity against human Jurkat cells at 4 uM in presence of iron-chelator o-phenanthroline by trypan blue staining based MTT assay; format: functional, cell-based
Jurkat [45] = assay: Cytotoxicity against human Jurkat cells at 4 uM incubated for 1 hr in presence of rotenone by trypan blue staining based MTT assay; format: functional, cell-based

Activity (Mitochondrial membrane)	SMILES	fold change (FC) (Jurkat [1])	Activity (Jurkat [2])	IC50 (Jurkat [2]) [µM]	Activity (TK6 [3])	Activity (TK6 [4])	Activity (U-937 [5])	Activity (OCI-AML-3 [6])	Activity (MOLM-13 [7])	Activity (MV4-11 [8])	Activity (RPMI-1788 [9])	Activity (TK6 [10])	Activity (U-937 [11])	Activity (OCI-AML-3 [12])	Activity (MOLM-13 [13])	Activity (MV4-11 [14])	Activity (RPMI-1788 [15])	Activity (Jurkat [20])	Activity (Jurkat [21])	Activity (Jurkat [22]) [%]	further results
Active	Cc1ccccc1-c1c2ccc(=O)cc-2oc2cc(OCCCCCCN=C=S)ccc12	2	Dose-dependent-effect	5.96	Active	Active	Active	Active	Active	Active	Active	Dose-dependent-effect	Dose-dependent-effect	Dose-dependent-effect	Dose-dependent-effect	Dose-dependent-effect	Dose-dependent-effect	Dose-dependent-effect	Dose-dependent-effect	59.2	Activity (Jurkat [16]): Active; Activity (Jurkat [17]): Active; Activity (Jurkat [18]): Active; Activity (Jurkat [19]): Active; Activity (Jurkat [23]): Active; fold change (FC) (Jurkat [24]): 45.5; Activity (Jurkat [25]): Dose-dependent-effect; Activity (Jurkat [26]): Active; Activity (TK6 [27]): Dose-dependent-effect; Activity (TK6 [28]): Active; Activity (TK6 [29]): 13.07; Activity (Jurkat [30]): Active; IC50 (Jurkat [31]): 3.99 µM; IC50 (Jurkat [32]): 5.96 µM; Activity (Jurkat [33]): Active; Activity (Jurkat [34]): Active; Activity (Jurkat [35]): Active; Activity (Jurkat [36]): Active; Activity (Jurkat [37]): Dose-dependent-effect
–	Cc1ccccc1-c1c2ccc(=O)cc-2oc2cc(OCCCCCCN)ccc12	–	–	–	–	–	–	–	–	–	–	–	–	–	–	–	–	–	–	–	Activity (Jurkat [38]): inactive; Activity (Jurkat [39]): inactive
–	C[S+]([O-])CCCCN=C=S (centres undefined) [SULFORAPHANE]	–	–	29.7	–	–	–	–	–	–	–	–	–	–	–	–	–	–	–	–	viability at 30 µM (Jurkat [40]): 66.2%
Active	Cc1ccccc1-c1c2ccc(=O)cc-2oc2cc(OCCOCCN=C=S)ccc12	2	Dose-dependent-effect	3.65	Active	Active	Active	Active	Active	Active	Active	Dose-dependent-effect	Dose-dependent-effect	Dose-dependent-effect	Dose-dependent-effect	Dose-dependent-effect	Dose-dependent-effect	Dose-dependent-effect	Dose-dependent-effect	48.7	Activity (Jurkat [23]): Active; fold change (FC) (Jurkat [24]): 70.4; Activity (Jurkat [25]): Dose-dependent-effect; Activity (Jurkat [26]): Active; Activity (TK6 [27]): Dose-dependent-effect; Activity (TK6 [28]): Active; Activity (TK6 [41]): Active; Activity (TK6 [29]): 19.59; Activity (Jurkat [30]): Active; IC50 (Jurkat [31]): 2.54 µM; IC50 (Jurkat [32]): 3.65 µM; Activity (Jurkat [42]): Active; Activity (Jurkat [43]): Active; Activity (Jurkat [44]): Active; Activity (Jurkat [45]): Active; Activity (Jurkat [37]): Dose-dependent-effect
